Some test systems named below: 786-0 renal; CCRF-CEM leukemia; HOP-92 NSCLC; KM12 colon; OVCAR-3 ovarian; RPMI-8226 leukemia; SF-268 CNS; T-47D breast; U251 CNS; UACC-257 melanoma.
Common to all, as to test: NCI tumour cell line growth inhibition, 48 h

This note sets out measurements from PubChem BioAssay (NCI).

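Protocol summary: plate cells (96-well), add compound at 5 concentrations, incubate 48 h, interpolate endpoints linearly. TGI: total growth inhibition.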 A value given as a limit tells only on which side of the number the result lay.

With `CN(C)CCNC(=O)c1ccc(Cl)c2cc3ccccc3nc12`, the TGI in the assay on 786-0 renal was 5.61 µM; with CCRF-CEM leukemia, 4.64 µM; in the assay on HOP-92 NSCLC it was 2.2 µM; in the assay on KM12 colon, 11.4 µM; in the assay with OVCAR-3 ovarian, 6.88 µM; with RPMI-8226 leukemia, 3.9 µM. The TGI is 5.05 µM in the assay with SF-268 CNS, 12.1 µM in the assay on T-47D breast, 10.6 µM with U251 CNS and 2.64 µM in the assay on UACC-257 melanoma.
On to `COC(=O)c1ccccc1C1=C([N+](=O)[O-])C(c2ccccc2)C(C#N)=C(N)O1` (stereo not given), for which the TGI in the assay on 786-0 renal was over 100 µM; in the assay on CCRF-CEM leukemia, over 100 µM; in the assay with HOP-92 NSCLC it was over 100 µM; in the assay with KM12 colon it was over 100 µM; with OVCAR-3 ovarian it was 88.9 µM; in the assay with RPMI-8226 leukemia it was over 100 µM. In addition, the TGI with SF-268 CNS, with T-47D breast, in the assay on U251 CNS and with UACC-257 melanoma was over 100 µM throughout.
For the compound `CC(C)(C)OC(=O)N1[C@@H]2Cc3ccc(N)cc3[C@@]1(C)c1ccccc12`, the TGI in the assay on 786-0 renal was 36.2 µM; with CCRF-CEM leukemia it was 64.9 µM; in the assay with HOP-92 NSCLC, 52.3 µM; with KM12 colon, over 100 µM; with OVCAR-3 ovarian, 68 µM; in the assay with RPMI-8226 leukemia it was 48.6 µM. Besides, the TGI in the assay on SF-268 CNS is over 100 µM; with T-47D breast, 70.7 µM; with U251 CNS it was 32.4 µM; in the assay on UACC-257 melanoma, 78.2 µM.
